Measurements from patent US4174402A, “Method for the prophylaxis of SRS-A-induced symptoms” (priority 1978, dated 1979).
Entries after “also recorded” stand apart in the source; their conditions may differ. Where two headings read alike, the source gives them in different places.

Tests used:
[1] = system: SRS-A; test: Test Procedure 2: inhibition of SRS-A-induced bronchoconstriction in anesthetized guinea pigs (Konzett-Rossler); format: in vivo, guinea pig; details: for % Inhibition (duration of anti-SRS-A effect) / Ratio of Peak Response to SRS-A in Paired Med./Co. Guinea Pigs ± S.E.: 10 mg/kg p.o.
Excerpt: SRS-A was harvested as described in Test Procedure 1 described hereinabove. A slightly modified Konzett-Rossler preparation [Arch. […] Guinea pigs weighing 350 to 450 g were anesthetized ip with 1.5 g/kg urethane. The jugular vein and trachea were cannulated and the guinea pigs were artificially respired at a rate of 40 strokes/minute. […] A side arm of the inflationary air cannula was connected to a pressure transducer and resistance to pulmonary inflation continuously recorded. […] Studies with SRS-A commenced after each guinea pig had attained maximum bronchoconstrictor response to histamine. […] The effects of the test compounds were studied by measuring SRS-A-induced bronchoconstriction side-by-side in two guinea pigs, one medicated and one control. Subsequent medicated/control pairs were alternated on two respiratory pumps. In this manner, the gradual decomposition of SRS-A and differences between the two pump/recorder systems, if any, were controlled. The dose (volume) of each sample of SRS-A was adjusted in each pair to keep the peaks of increases in bronchial resistance in control guinea pigs within 13 to 40 mmHg. Bronchoconstriction following injection of SRS-A was measured two ways; as the peak increase in resistance to inflation and, in view of the occasional irregular bronchoconstriction response curves following injection of SRS-A, as the sum of increases in bronchoconstriction over 10 minutes (pressure/time units). Pressure/time units were calculated by measuring the area under the curve of inflationary resistance where ordinates were set at 10 mm of pen excursion/10 mm pressure Hg and the abscissas were set at 15 mm of paper travel/minute. […] SRS-A-induced bronchoconstriction (increase in resistance) was calculated as the area under the curve and over the normal base line of resistance to inflation. […] The effects of the test compounds upon SRS-A-induced bronchoconstriction were expressed as ratios of the peaks and as ratios of the pressure/time units between the paired medicated and control guinea pigs. The consistency of paired responses to SRS-A in nonmedicated guinea pigs was determined in the same manner, by alternating the ratios of the results of guinea pigs on pumps one and two. […] SRS-A was injected 5 minutes after these latter injections. Compound b was prepared as a solution in 2% N-methylglucamine and used within 3 hours. […] Control guinea pigs received injections of the respective solvent vehicles. In order to compare the activities of compound b following iv and po routes of administration, compound b was also administered orally. […] Control guinea pigs received 2% N-methylglucamine. Fifteen minutes later, the guinea pigs were anesthetized, cannulated, and prepared for injections of SRS-A as described. The procedure was timed so that SRS-A was injected 1 hour after the oral administration of compound b. In a separate experiment, using the same methodology, the duration anti-SRS-A activity of compound b was determined after oral administration. Compound b was finely ground in a tissue homogenizer and prepared as a suspension in 0.5% gum tragacanth. A dose of 10 mg/kg was administered and anti-SRS-A effect studied at 1, 4 and 7 hr postmedication. The ratios of peak increases in intratracheal pressure between paired medicated and control guinea pigs was used to calculate percent inhibition.

[2] = Oral toxicity, 5 weeks, rhesus monkeys; format: in vivo, rhesus monkey
Experimental: The oral toxicity of compound b at doses of 5.0, 32.0, 75.0 and 200 mg/kg/day for 5 weeks was studied in rhesus monkeys.

[3] = system: bradykinin
Experimental: Antagonism of bradykinin-induced bronchoconstriction in guinea pigs was determined by measuring increases in resistance to artificial pulmonary inflation (Konzett-Rossler preparation). […] Due to large variations in bronchoconstricting responses among individual guinea pigs, each guinea pig serves as its own control and was challenged with bradykinin twice. The second response to bradykinin was expressed as percent of the first response to bradykinin. […] All guinea pigs having a first bradykinin response of less than 12 mm Hg were rejected as poor responders. […] In order to augment the bronchoconstrictor response, each guinea pig received 100 mcg propranolol/kg, iv, 5 minutes before the first injection of bradykinin (30 mcg/kg, iv). […] Five minutes after the injection of a test compound the guinea pigs received the second injection of bradykinin and the peak of the response determined. The effects of both test compounds were expressed as % inhibition of bradykinin-induced increase in bronchial resistance to forced inflation, as compared to the levels of bronchial resistance following iv administration of their respective solvent controls.

[4] = Oral toxicity, 5 weeks, Charles River CD albino rats; format: in vivo, rat
[5] = system: serotonin; test: Test Procedure 6: serotonin-induced bronchoconstriction in anesthetized guinea pigs; format: in vivo, guinea pig
Experimental: Guinea pigs, weighing 275-340 g, were anesthetized and prepared for measurements of resistance to pulmonary inflation using a slightly modified Konzett-Rossler method (see Test Procedure 2). All guinea pigs received 0.1 mg/kg of propranolol iv and 5 minutes later, 50 mcg/kg of serotonin (creatinine complex) iv. Compound b or cyproheptadine were administered iv just before the injection of propranolol at 50 or 5 mg/kg, respectively. Compound b was prepared as a 5% solution in 5% N-methylglucamine and cyproheptadine as a 0.25% aqueous solution.

[6] = system: SRS-A; test: Test Procedure 1: antagonism of SRS-A-induced bronchoconstriction in unanesthetized guinea pigs; format: in vivo, guinea pig
Experimental: The test compounds were administered orally to four guinea pigs/group 1 hour before the SRS-A challenge. The test compounds were prepared as suspensions in 1% gum tragacanth. Bronchoconstriction was graded 1+ to 3+ according to severity (1+ denoted restlessness and slight thoracic dyspnea, 2+ denoted moderate thoracic dyspnea and 3+ denoted convulsive dyspnea, regardless of whether the guinea pig died of asphyxiation or recovered).

[7] = suspension, 1 hr before test, P 0.01
[8] = suspension, 4 hr before test, P 0.01
[9] = p.o. 3.3 mg/kg, solution, 1 hour
[10] = p.o. 10 mg/kg, solution, 1 hour
[11] = rhesus monkey, in vivo, po, 200 mg/kg/day
[12] = rat, in vivo, po, 640 mg/kg/day

COc1ccc2c(c1)c1c(n2C(=O)c2ccccc2)CCC(C(=O)O)C1 (stereo not drawn) [Compound b, 9-benzoyl-6-methoxy-1,2,3,4-tetrahydrocarbazole-3-carboxylic acid]
% Inhibition (duration of anti-SRS-A effect) [1, 7]: 81% | Ratio of Peak Response to SRS-A in Paired Med./Co. Guinea Pigs ± S.E. [1, 7]: 0.19 ± 0.05 | % Inhibition (duration of anti-SRS-A effect) [1, 8]: 68% | Ratio of Peak Response to SRS-A in Paired Med./Co. Guinea Pigs ± S.E. [1, 8]: 0.32 ± 0.08 | % Inhibition (duration of anti-SRS-A effect) ([1]; suspension, 7 hr before test): 0% | Ratio of Peak Response to SRS-A in Paired Med./Co. Guinea Pigs ± S.E. ([1]; suspension, 7 hr before test): 1.00 ± 0.15 | minimal effective dose ([1]; Cavia porcellus, intravenous, read-out: minimal active dose): 1 mg/kg | effect against SRS-A-induced bronchoconstriction (activity profile) ([1]; guinea pigs): effectiveness | % Inhibition (sum of increase in resistance over 10 min) ([1]; i.v. 0.3 mg/kg): 0% | Sum of Increase in Resist. to Infl. over 10 min, Avg Ratio Med/Co. Pairs ± S.E. ([1]; i.v. 0.3 mg/kg): 1.18 ± .33 | % Inhibition (peak increase in resistance) ([1]; i.v. 0.33 mg/kg): 0% | Peak Increase in Resistance to Inflation, Avg Ratio of Med/Co. Pairs ± S.E. ([1]; i.v. 0.33 mg/kg): 1.10 ± .19 | % Inhibition (peak increase in resistance) ([1]; i.v. 1.0 mg/kg): 54% | % Inhibition (sum of increase in resistance over 10 min) ([1]; i.v. 1.0 mg/kg): 45% | Peak Increase in Resistance to Inflation, Avg Ratio of Med/Co. Pairs ± S.E. ([1]; i.v. 1.0 mg/kg): 0.44 ± .07 | Sum of Increase in Resist. to Infl. over 10 min, Avg Ratio Med/Co. Pairs ± S.E. ([1]; i.v. 1.0 mg/kg): 0.55 ± .09 | % Inhibition (peak increase in resistance) ([1]; i.v. 3.3 mg/kg): 89% | % Inhibition (sum of increase in resistance over 10 min) ([1]; i.v. 3.3 mg/kg): 83% | Peak Increase in Resistance to Inflation, Avg Ratio of Med/Co. Pairs ± S.E. ([1]; i.v. 3.3 mg/kg): 0.11 ± .04 | Sum of Increase in Resist. to Infl. over 10 min, Avg Ratio Med/Co. Pairs ± S.E. ([1]; i.v. 3.3 mg/kg): 0.17 ± .05 | % Inhibition (peak increase in resistance) ([1]; i.v. 10 mg/kg): 95% | % Inhibition (sum of increase in resistance over 10 min) ([1]; i.v. 10 mg/kg): 86% | Peak Increase in Resistance to Inflation, Avg Ratio of Med/Co. Pairs ± S.E. ([1]; i.v. 10 mg/kg): 0.05 ± .03 | Sum of Increase in Resist. to Infl. over 10 min, Avg Ratio Med/Co. Pairs ± S.E. ([1]; i.v. 10 mg/kg): 0.14 ± .04 | inhibition of SRS-A-induced increases in resistance to inflation ([1]; intravenous): inhibited SRS-A-induced increases in resistance to inflation in a dose-related manner | potency relative to phenylbutazone, times more potent (95% confidence limits) ([1]; intravenous, calculated by peaks of increases in resistance): 3.8 (95% confidence limits of 1.8 to 7.8) times | absorption from the GI tract ([1]; oral solution in 2% N-methylglucamine, suggested by activity ratio): readily absorbed from the GI tract | inhibition of SRS-A-induced bronchoconstriction ([1]; oral solutions): dose-related inhibition | % Inhibition (peak increase in resistance) [1, 9]: 36% | % Inhibition (sum of increase in resistance over 10 min) [1, 9]: 47% | Peak Increase in Resistance to Inflation, Avg Ratio of Med/Co. Pairs ± S.E. [1, 9]: 0.64 ± .13 | Sum of Increase in Resist. to Infl. over 10 min, Avg Ratio Med/Co. Pairs ± S.E. [1, 9]: 0.53 ± .13 | % Inhibition (peak increase in resistance) [1, 10]: 87% | % Inhibition (sum of increase in resistance over 10 min) [1, 10]: 92% | Sum of Increase in Resist. to Infl. over 10 min, Avg Ratio Med/Co. Pairs ± S.E. [1, 10]: 0.08 ± .03 | duration of inhibition of SRS-A-induced bronchoconstriction ([1]; single oral dose 10 mg/kg, suspension): 4 h | iv/po activity ratio (po AED50/iv AED50) ([1]; solution in 2% N-methylglucamine): 2.6 | mortality ([2]; oral 5.0, 32.0 and 75.0 mg/kg/day, 5 weeks): no mortality occurred | gross or microscopic histopathologic changes ([2]; rhesus monkey, in vivo): No gross or microscopic histophathologic changes were found | deaths attributed to medication [2, 11]: two deaths attributed to medication occurred | tolerability [2, 11]: not well tolerated | effect against bradykinin-induced bronchoconstriction (activity profile) ([3]; guinea pigs): effectiveness | inhibition of bradykinin-induced increases in bronchial resistance ([3]; iv): inhibited bradykinin-induced increases in bronchial resistance to inflation in a dose-related manner | % Inhibition ([3]; iv 0.33 mg/kg): 12% | Average Increase In Bronchial Resistance (2nd Response in % of 1st Response ± S.E.) ([3]; iv 0.33 mg/kg): 76 ± 13% | % Inhibition ([3]; iv 1.0 mg/kg): 48% | Average Increase In Bronchial Resistance (2nd Response in % of 1st Response ± S.E.) ([3]; iv 1.0 mg/kg): 45 ± 7% | % Inhibition ([3]; iv 3.3 mg/kg): 81% | Average Increase In Bronchial Resistance (2nd Response in % of 1st Response ± S.E.) ([3]; iv 3.3 mg/kg): 16 ± 3% | % Inhibition ([3]; iv 10.0 mg/kg): 84% | Average Increase In Bronchial Resistance (2nd Response in % of 1st Response ± S.E.) ([3]; iv 10.0 mg/kg): 14 ± 5% | % Inhibition ([3]; iv 33.0 mg/kg): 93% | Average Increase In Bronchial Resistance (2nd Response in % of 1st Response ± S.E.) ([3]; iv 33.0 mg/kg): 6 ± 4% | inhibition of bradykinin-induced bronchoconstriction ([3]; iv 3.3, 10 and 33 mg/kg): nearly complete inhibition | mortality ([4]; oral 1280 mg/kg/day): all rats died within 18 days | growth rate [4, 12]: slightly depressed | hematocrit [4, 12]: minimally lower than controls | hemoglobin concentration [4, 12]: minimally lower than controls | number of red blood cells [4, 12]: minimally lower than controls | tolerability ([4]; rat, in vivo, po, 1280 mg/kg/day): not well tolerated | effect against serotonin-induced bronchoconstriction ([5]; guinea pigs): no inhibitory effect; also recorded: ineffectiveness | Increase in Resistance (mm Hg) ([5]; iv 50 mg/kg, P insign.): 45 ± 8 mm Hg | Inhibition % ([5]; iv 50 mg/kg, P insign.): 4% | Incidence of Severe Bronchospasms, % ([6]; 0.4 mg/kg p.o.): 75% | Incidence of Severe Bronchospasms, No. Bronchosp./No. Tested ([6]; 0.4 mg/kg p.o.): 15/20 | Incidence of Severe Bronchospasms, % ([6]; 1.6 mg/kg p.o.): 42% | Incidence of Severe Bronchospasms, No. Bronchosp./No. Tested ([6]; 1.6 mg/kg p.o.): 8/19 | inhibition of severe SRS-A induced bronchospasm ([6]; 6.2 mg/kg oral): completely inhibited | Incidence of Severe Bronchospasms, % ([6]; 6.2 mg/kg p.o.): 0% | Incidence of Severe Bronchospasms, No. Bronchosp./No. Tested ([6]; 6.2 mg/kg p.o.): 0/19 | Incidence of Severe Bronchospasms, % ([6]; 25 mg/kg p.o.): 4% | Incidence of Severe Bronchospasms, No. Bronchosp./No. Tested ([6]; 25 mg/kg p.o.): 1/23 | Incidence of Severe Bronchospasms, % ([6]; 100 mg/kg p.o.): 0% | Incidence of Severe Bronchospasms, No. Bronchosp./No. Tested ([6]; 100 mg/kg p.o.): 0/20 | Incidence of Severe Bronchospasms, % ([6]; 400 mg/kg p.o.): 0% | Incidence of Severe Bronchospasms, No. Bronchosp./No. Tested ([6]; 400 mg/kg p.o.): 0/10 | ED50 ([6]; Cavia porcellus, po, 1 hour before SRS-A, read-out: AED50): 2.3 mg/kg | Potency (Phenylbutazone = 1) (95% confidence limits) ([6]; p.o., 1 hour before SRS-A): 4.0 (2.1-8.2)
